From US10231973B2, “Salts of quinazoline derivative and method for preparing the same” (CHIA TAI TIANQING PHARMACEUTICAL GROUP CO., LTD., priority 2015, dated 2019)
Where two headings read alike, the source gives them in different places.

Tests used:
[1] = Bioavailability test, oral suspensions in beagle dogs; format: in vivo; settings: oral suspension in CMC-Na, 5 mg/kg (as compound of Formula I); for Cmax: plasma concentration of compound of Formula I by LC-MS; for AUC0-t: sampling to 48 h
Method: Study procedure: Fifteen beagle dogs (7.4˜9.4 kg body weight) were randomly divided into 5 groups, and administered orally suspensions of the compound of Formula I, the maleate, citrate, oxalate and acetate thereof (calculated according to the amount of the compound of Formula I) in CMC-Na (carboxymethylcellulose sodium) at a dosage of 5 mg/kg body weight, respectively.
Chromatographic conditions: methanol as mobile phase A and a 0.1% (v/v) aqueous solution of formic acid as mobile phase B, an isocratic elution A:B=52:48; 0.2 mL/min of a flow rate; 35° C. of column temperature; and SHIMADZU Shim-pack VP-ODS C18 (5.0 μm, 150 mm×2.0 mm I.D., Shimadzu Corporation) as chromatographic column.
Mass spectrometry conditions: ion source: ESI ionization source, scanning in SIM mode, 250° C. of curved desolventizer (CDL) temperature, 200° C. of heating block temperature; 25V of CDL voltage; +1.60 kV of detection voltage; 1.5 L/min of atomization gas flow rate; 2.0 L/min of dry gas flow rate.

[2] = test system: NCI-H1975, a human non-small cell lung cancer cell; assay: Anchorage-independent cell proliferation assay, NCI-H1975; format: cell-based; settings: NCI-H1975, 168 h, soft agarose, 7 days treatment, CellTiter-Blue
Method: (§1) NCI-H1975, a human non-small cell lung cancer cell, and BT474, a human breast cancer cell line, were cultured in RPIM-1640 or DMEM culture medium supplemented with 10% fetal bovine serum (FBS) in a cell incubator (37° C., 5% CO2). In the test of the compound, culture plates were pre-coated with 0.6% medium, and the cells were resuspended with 0.3% low-melting-point agarose, and then seeded in a 96-well plate at a density of 10,000 cells per well (100 μL). The compound was diluted at a 3-fold gradient, starting from 10 mM. For each of concentration, 2 μL of the solution was taken, and added to 98 μL of culture medium, and then 5.3 μL of the mixture was added to the cell culture medium (0.1% of DMSO final concentration, v/v). After the treatment for one week (7 days), 20 μL of CellTiter-Blue® (Promega) reagent was added, and incubated at 37° C. for 4 hours. Fluorescence signals were read on Envison (Perkin Elmer), and IC50 values of the compound for inhibiting cell proliferation were calculated using GraphPad Prism 5.0.

[3] = test system: BT474, a human breast cancer cell line; assay: Anchorage-independent cell proliferation assay, BT474; format: cell-based; settings: BT-474, 168 h, soft agarose, 7 days treatment, CellTiter-Blue
Method: as §1

In the case of Oxalate, the CL/F ([1]; plasma) is reported as 1.39 L/h/kg, the T1/2 ([1]; plasma) is reported as 9.38 h and the Tmax ([1]; plasma) is reported as 1.50 h. It also gave a Cmax [1] of 3.59 µg/mL and an AUC0-t ([1]; plasma) of 53.20 µg·h/mL.
In the case of `CC(=O)O` [Acetate], the CL/F ([1]; plasma) is reported as 3.31 L/h/kg, the T1/2 ([1]; plasma) is reported as 9.41 h and the Tmax ([1]; plasma) is reported as 3.33 h. It also gave a Cmax [1] of 2.08 µg/mL and an AUC0-t ([1]; plasma) of 20.35 µg·h/mL.
In the case of `C=CC(=O)N1CCC(Nc2cc3c(Nc4ccc(F)c(Cl)c4)ncnc3cc2OC)CC1` [Example 1, N^6-(1-acryloylpiperidin-4-yl)-N^4-(3-chloro-4-fluorophenyl)-7-methoxyquinazoline-4,6-diamine], the IC50 [2] is reported as 14 nM, the Vd/F ([1]; dog, plasma) is reported as 0.78 ± 1.08 L/kg and the half-life ([1]; dog, plasma) is reported as 5.13 ± 2.85 h. The Cmax ([1]; dog, read-out: Cmax) was 2.82 ± 2.83 µg/mL, the CL/F ([1]; dog, plasma, read-out: CL/F (converted)) was 4.67 L/h/kg and the Tmax ([1]; dog, plasma, read-out: Tmax) was 3.17 ± 4.19 h. The AUC0-t ([1]; dog, plasma, read-out: AUC0-t) was 42.1 µg·h/mL and the IC50 [3] was 2.1 nM.
Molecule Citrate has a CL/F ([1]; plasma) of 4.32 L/h/kg, a T1/2 ([1]; plasma) of 4.48 h and a Tmax ([1]; plasma) of 1.33 h. It also gave a Cmax [1] of 1.29 µg/mL and an AUC0-t ([1]; plasma) of 10.76 µg·h/mL.
